Experimental data published in patent US12216121B2, “Methods and compositions for spacial and temporal measurement of catalytic activity” (The University of Chicago, priority 2017, dated 2025).

Assay: Specificity of reporter dye (compound 8) towards metal ions and amino acids
Conditions: 1 mM metal ions, 5 mM H2O2 and amino acids, phosphate buffer pH 7.2; all tested except cysteine
Experimental: FIG. 5C illustrates the sensitivity of sensing dye, (compound 8) in presence of different analyte such as 1. Phosphate buffer (pH=7.2), 1 mM of 2. Na+, 3. K+, 4. Ca2+, 5. Fe2+, 6. Zn2+, and 5 mM of 7. H2O2, 8. His, 9. Ser, 10. Lys, 11. Val, and 12. Cys. Each intensity is normalized from the intensity of compound 8 before treatment with respective analytes.
The specificity of reporter dye was checked towards thiol disulfide exchange reaction and treated the reporter dye (compound 8) with different metal ions and amino acids.

thiopyridyl conjugated blocked 6′-O propargyl fluorescein [compound 8]
reaction with metal ions and amino acids (fluorescence): No reaction was observed
